# According to paper PMC4503722, “Novel Phenotypic Outcomes Identified for a Public Collection of Approved Drugs from a Publicly Accessible Panel of Assays” (PLoS ONE, 2015):
# Read-outs that look alike come from different tables or passages of the source.
# Assays:
# HCT116 = test: cells; assay type: cell-based; settings: for IC50: read-out: Basal_Viability ATP HCT116 summarized IC50
# RKO = test: cells; assay type: cell-based; settings: for IC50: read-out: Basal_Viability ATP RKO summarized IC50
# Colo320 = test: cells; assay type: cell-based; settings: for IC50: read-out: Basal_Viability ATP Colo 320 summarized IC50
# DLD-1 = test: cells; assay type: cell-based; settings: for IC50: read-out: Basal_Viability ATP DLD-1 summarized IC50
# HT-29 = test: cells; assay type: cell-based; settings: for IC50: read-out: Basal_Viability ATP HT-29 summarized IC50
# SNU-C1 = test: cells; assay type: cell-based; settings: for IC50: read-out: Basal_Viability ATP SNU-C1 summarized IC50
# SW480 = test: cells; assay type: cell-based; settings: for IC50: read-out: Basal_Viability ATP SW480 summarized IC50
# [1] = system: ECFC/ADSC co-culture cell nuclei number
# HeLa cells = test: cells; assay type: cell-based;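 on Hela CellCycMod PI 4N summarized IC50: value tracks stimulation of 4N DNA content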
# [2] = system: endothelial tube formation in co-cultures of ECFCs and ADSCs treated with VEGF; test: cells; assay type: cell-based, human
# [3] = system: HCT116 cells treated with a GSK3β inhibitor; test: cells; assay type: cell-based; settings: assay number 26; GSK3b inhibitor pretreated; read-out: GSK3b inh pretreated_Viability ATP HCT116 summarized IC50
compound,measurement,setting,value
NC(=O)N/N=C/c1ccc([N+](=O)[O-])o1 [NCGC00090686-11],IC50,"HCT116; assay number 25, basal",> 20000 nM
same,IC50,"RKO; assay number 29, basal",> 20000 nM
same,IC50,"Colo320; assay number 27, basal",> 20000 nM
same,IC50,"DLD-1; assay number 23, basal",> 20000 nM
same,IC50,"HT-29; assay number 28, basal",> 20000 nM
same,IC50,"SNU-C1; assay number 30, basal",> 20000 nM
same,IC50,"SW480; assay number 24, basal",> 20000 nM
Oc1c(Cl)cc(Cl)c(Cl)c1Cc1c(O)c(Cl)cc(Cl)c1Cl [NCGC00091195-08],IC50,HCT116,31.2 nM
same,IC50,RKO,108 nM
same,IC50,Colo320,57.2 nM
same,IC50,DLD-1,15.7 nM
same,IC50,HT-29,460 nM
same,IC50,SNU-C1,32 nM
same,IC50,SW480,3 nM
CCCCCCOc1ccccc1C(N)=O [NCGC00095049-04],"IC50/EC50, Basal_Viability ATP HCT116 (assay number 25)",HCT116; basal,> 6.6667 µM
same,"IC50/EC50, Basal_Viability ATP RKO (assay number 29)",RKO; basal,> 6.6667 µM
same,"IC50/EC50, Basal_Viability ATP Colo 320 (assay number 27)",Colo320; basal,> 20 µM
same,"IC50/EC50, Basal_Viability ATP DLD-1 (assay number 23)",DLD-1; basal,8.6657 µM
same,"IC50/EC50, Basal_Viability ATP HT-29 (assay number 28)",HT-29; basal,> 20 µM
same,"IC50/EC50, Basal_Viability ATP SNU-C1 (assay number 30)",SNU-C1; basal,9.3567 µM
same,"IC50/EC50, Basal_Viability ATP SW480 (assay number 24)",SW480; basal,> 20 µM
CN(CCOc1ccc(CC2SC(=O)NC2=O)cc1)c1ccccn1 (stereo not shown) [NCGC00095124-08],Basal_Viability ATP HCT116 IC50/EC50,"HCT116; assay number 25, basal",> 20 µM
same,Basal_Viability ATP RKO IC50/EC50,"RKO; assay number 29, basal",> 20 µM
same,Basal_Viability ATP Colo 320 IC50/EC50,"Colo320; assay number 27, basal",> 20 µM
same,Basal_Viability ATP DLD-1 IC50/EC50,"DLD-1; assay number 23, basal",> 20 µM
same,Basal_Viability ATP HT-29 IC50/EC50,"HT-29; assay number 28, basal",> 20 µM
same,Basal_Viability ATP SNU-C1 IC50/EC50,"SNU-C1; assay number 30, basal",8.6851 µM
same,Basal_Viability ATP SW480 IC50/EC50,"SW480; assay number 24, basal",> 20 µM
Cc1onc(-c2ccccc2)c1-c1ccc(S(N)(=O)=O)cc1 [NCGC00095129-06],Basal_Viability ATP HCT116 IC50/EC50,HCT116,> 20 µM
same,Basal_Viability ATP RKO IC50/EC50,RKO,> 20 µM
same,Basal_Viability ATP Colo 320 IC50/EC50,Colo320,> 20 µM
same,Basal_Viability ATP DLD-1 IC50/EC50,DLD-1,> 20 µM
same,Basal_Viability ATP HT-29 IC50/EC50,HT-29,> 20 µM
same,Basal_Viability ATP SNU-C1 IC50/EC50,SNU-C1,> 20 µM
same,Basal_Viability ATP SW480 IC50/EC50,SW480,> 20 µM
CNS(=O)(=O)Cc1ccc2[nH]cc(CCN(C)C)c2c1 [NCGC00095838-04],Basal_Viability ATP HCT116 IC50/EC50,"HCT116; assay number 25, basal",> 20 µM
same,Basal_Viability ATP RKO IC50/EC50,"RKO; assay number 29, basal",> 20 µM
same,Basal_Viability ATP Colo 320 IC50/EC50,"Colo320; assay number 27, basal",> 20 µM
same,Basal_Viability ATP DLD-1 IC50/EC50,"DLD-1; assay number 23, basal",> 20 µM
same,Basal_Viability ATP HT-29 IC50/EC50,"HT-29; assay number 28, basal",> 20 µM
same,Basal_Viability ATP SNU-C1 IC50/EC50,"SNU-C1; assay number 30, basal",> 20 µM
same,Basal_Viability ATP SW480 IC50/EC50,"SW480; assay number 24, basal",> 6.6667 µM
CCN(CCO)CCCC(C)Nc1ccnc2cc(Cl)ccc12.O=S(=O)(O)O (stereo not shown) [NCGC00159483-04],Basal_Viability ATP HCT116 IC50/EC50,"HCT116; assay number 25, basal",> 20 µM
same,Basal_Viability ATP RKO IC50/EC50,"RKO; assay number 29, basal",> 20 µM
same,Basal_Viability ATP Colo 320 IC50/EC50,"Colo320; assay number 27, basal",> 20 µM
same,Basal_Viability ATP DLD-1 IC50/EC50,"DLD-1; assay number 23, basal",> 20 µM
same,Basal_Viability ATP HT-29 IC50/EC50,"HT-29; assay number 28, basal",> 20 µM
same,Basal_Viability ATP SNU-C1 IC50/EC50,"SNU-C1; assay number 30, basal",> 20 µM
same,Basal_Viability ATP SW480 IC50/EC50,"SW480; assay number 24, basal",> 20 µM
CC=CC1=C(C(=O)O)N2C(=O)[C@@H](NC(=O)[C@H](N)c3ccc(O)cc3)[C@H]2SC1 [NCGC00159513-03],Basal_Viability ATP HCT116 IC50/EC50,"HCT116; assay number 25, basal",> 20 µM
same,Basal_Viability ATP RKO IC50/EC50,RKO; assay number 29,> 20 µM
same,Basal_Viability ATP Colo 320 IC50/EC50,Colo320; assay number 27,> 20 µM
same,Basal_Viability ATP DLD-1 IC50/EC50,DLD-1; assay number 23,> 20 µM
same,Basal_Viability ATP HT-29 IC50/EC50,HT-29; assay number 28,> 20 µM
same,Basal_Viability ATP SNU-C1 IC50/EC50,SNU-C1; assay number 30,> 20 µM
same,Basal_Viability ATP SW480 IC50/EC50,SW480; assay number 24,> 20 µM
Cc1nc2ccccc2n1Cc1ccc(Cl)cc1 [NCGC00160416-02],Basal_Viability ATP HCT116 IC50/EC50,"HCT116; assay number 25, basal",1.219 µM
same,VEGF_ADSC\ECFC Angio Hoechst NucArea IC50/EC50,[1],> 10 µM
same,Basal_Viability ATP Colo 320 IC50/EC50,"Colo320; assay number 27, basal",15.1764 µM
same,Basal_Viability ATP DLD-1 IC50/EC50,"DLD-1; assay number 23, basal",> 20 µM
same,Basal_Viability ATP HT-29 IC50/EC50,"HT-29; assay number 28, basal",> 20 µM
same,Hela CellCycMod PI 2N IC50/EC50,"HeLa cells; assay number 14, 2N",> 10 µM
same,Hela CellCycMod PI 4N IC50/EC50,"HeLa cells; assay number 16, 4N",> 10 µM
same,Hela CellCycMod PI MI IC50/EC50,"HeLa cells; assay number 17, MI",> 10 µM
same,Hela CellCycMod PI Cell Number IC50/EC50,"HeLa cells; assay number 18, cell number",0.03183 µM
same,VEGF_ADSC\ECFC Angio CD31 TubeArea IC50/EC50,[2],7.3825 µM
same,Basal_Viability ATP SNU-C1 IC50/EC50,"SNU-C1; assay number 30, basal",> 20 µM
same,Basal_Viability ATP SW480 IC50/EC50,"SW480; assay number 24, basal",5.3305 µM
CCCCCCCCCCCC[N+](C)(C)Cc1ccccc1 [NCGC00164245-03],IC50,[1]; read-out: VEGF_ADSC\ECFC Angio Hoechst NucArea summarized IC50,6.93 µM
same,IC50,"DLD-1; assay number 23, basal",738 nM
same,IC50,"HT-29; assay number 28, basal",465 nM
same,IC50,"HeLa cells; assay number 14, 2N, read-out: Hela CellCycMod PI 2N summarized IC50",> 10 µM
same,IC50,"HeLa cells; assay number 15, S phase, read-out: Hela CellCycMod PI S Phase summarized IC50",> 10 µM
same,IC50,"HeLa cells; assay number 16, 4N, read-out: Hela CellCycMod PI 4N summarized IC50",> 10 µM
same,IC50,"HeLa cells; assay number 17, MI, read-out: Hela CellCycMod PI MI summarized IC50",> 10 µM
same,IC50,"HeLa cells; assay number 18, cell number, read-out: Hela CellCycMod PI Cell Number summarized IC50",> 10 µM
same,IC50,[2]; read-out: VEGF_ADSC\ECFC Angio CD31 TubeArea summarized IC50,> 10 µM
same,IC50,[3],> 20 µM
same,IC50,"SNU-C1; assay number 30, basal",20 nM
